Experimental data from US7662973B2, “Fluorescent detection method and reagent” (GE Healthcare UK Limited, priority 2000, dated 2010).
Structures can show the parent of a compound that is named as a salt.

Key:
[1] = target: T1, Nitroreductase expressing cells (Escherichia coli, UniProt P38489); assay: Cellular nitroreductase activity in living cells by flow cytometry; type: cell-based; conditions: 30 μM Cy3Qee, 2 hours 37° C.; 488 nm laser excitation, 585/42 nm emission
T1 construct: expressed in transfected cells
Procedure: Nitroreductase expressing cells and control cells were incubated for 2 hours at 37° C. in tissue culture media containing 30 μM Cy3Qee. Following incubation cells were washed with phosphate buffered saline and trypsinised to produce cell suspensions for flow cytometry.
Cells were analysed using a FACScalibur flow cytometer (Becton Dickinson) using 488 nm laser excitation and a 585/42 nm emission filter. Results (FIG. 12) show a significant increase in fluorescence in nitroreductase expressing cells (mean fluorescence 169.9) compared with control cells (mean fluorescence 18.2).

[2] = target: T1, Nitroreductase expressing cells; assay: Cellular nitroreductase activity in living cells with cell permeable substrates (plate reader); type: cell-based; conditions: 37° C.
Procedure: Cy3Qee (Formula IIIa) and Cy5Qee (Formula IIIb) were evaluated as cell permeable fluorescence substrates for nitroreductase measurement in living cells. Nitroreductase expressing cells and control cells were cultured at 10,000 cells/well in 96 well plates in tissue culture medium containing 10% foetal calf serum and incubated at 37° C. in the presence of 10 μM Cy3Qee or 30 μM Cy5Qee.

[3] = test system: SKOV cells lysate; assay: In vitro evaluation of cassette: ester linker cleavage by cell lysate; type: cell-based; conditions: 20 minutes 37° C., PBS pH 7.4, 1 mM NADH; 450 nm excitation
Procedure: (§1) Cy5Q-Cascade blue cassette (0.8 mM in acetate buffer pH 5.0) was diluted to […] in PBS pH 7.4 containing 1 mM NADH. A cell lysate was prepared from 2×10^7 SKOV cells by re-suspension of scraped cells in 5 ml PBS at 4° C. and repeated passage through a 25 gauge syringe needle. Aliquots (1 ml) of Cy5Q-Cascade blue were incubated with 500 μl of cell lysate or PBS for 20 minutes at 37° C. Following incubation 100 μl of a 1 ng/μl solution of E. coli B nitroreductase was added to one sample and incubation continued for 5 minutes. Aliquots ([…]) were then dispensed in quadruplicate from each sample to a 96 well plate for measurement of fluorescence on a Cytofluor plate reader using 450 nm excitation/530 nm emission filters for cascade blue and 610 nm excitation/670 nm emission for Cy5.

[4] = target: E. coli B nitroreductase (Escherichia coli, UniProt P38489); assay: In vitro evaluation of cassette: reduction by nitroreductase; type: biochemical; conditions: after lysate incubation, 5 minutes with nitroreductase; 610 nm excitation
Procedure: as §1

[5] = 10 μM Cy3Qee, 530/25 nm excitation, 580/50 nm emission
[6] = 30 μM Cy5Qee, 610/20 nm excitation, 670/40 nm emission

T1 sequence (P38489 whole entry): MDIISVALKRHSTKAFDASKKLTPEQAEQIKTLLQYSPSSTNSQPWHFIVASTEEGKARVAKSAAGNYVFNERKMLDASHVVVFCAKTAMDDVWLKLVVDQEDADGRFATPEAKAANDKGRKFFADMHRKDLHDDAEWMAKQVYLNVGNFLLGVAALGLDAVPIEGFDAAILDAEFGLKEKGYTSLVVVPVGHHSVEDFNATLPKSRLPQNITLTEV
Sequence of E. coli B nitroreductase (P38489 whole entry): as above

CCOC(=O)Cc1ccc2c(c1)C(C)(C)C(/C=C/C=C1/N(C)c3ccc(CC(=O)OCC)cc3C1(C)C)=[N+]2Cc1cc([N+](=O)[O-])cc([N+](=O)[O-])c1 [Cy3Qee]
mean fluorescence, control cells [1]: 18.2
mean fluorescence, nitroreductase expressing cells [1]: 169.9
fluorescence in control cells [2, 5]: minimal changes in fluorescence
fluorescence in nitroreductase expressing cells [2, 5]: significant time dependent increase in fluorescence

CC1(C)C(/C=C/C=C/C=C2/N(Cc3cc([N+](=O)[O-])cc([N+](=O)[O-])c3)c3ccc(S(=O)(=O)O)cc3C2(C)C)=[N+](CCCCCC(=O)Oc2cc(S(=O)(=O)O)c3ccc4c(S(=O)(=O)[O-])cc(S(=O)(=O)O)c5ccc2c3c45)c2ccc(S(=O)(=O)O)cc21 [Cy5Q-Cascade blue cassette]
fluorescence emission at 530 nm (Cascade Blue) in the presence of cell lysate [3]: increase of fluorescence emission
fluorescence emission at 670 nm (Cy5) when nitroreductase enzyme is present [4]: increase in fluorescence emission

CCOC(=O)Cc1ccc2c(c1)C(C)(C)C(/C=C/C=C/C=C1/N(C)c3ccc(CC(=O)OCC)cc3C1(C)C)=[N+]2Cc1cc([N+](=O)[O-])cc([N+](=O)[O-])c1 [Cy5Qee, 1-(3,5-dinitrobenzyl)-5-(2-ethoxy-2-oxoethyl)-2-{(1E,3E)-5-[6-(2-ethoxy-2-oxoethyl)-1,1,3-trimethyl-1,3-dihydro-2H-indol-2-ylidene]-1,3-pentadienyl}-3,3-dimethyl-3H-indoluim Salt]
fluorescence in control cells [2, 6]: minimal changes in fluorescence
fluorescence in nitroreductase expressing cells [2, 6]: significant time dependent increase in fluorescence
